Test results reported in paper PMC9240639, “Williams-Beuren Syndrome Related Methyltransferase WBSCR27: From Structure to Possible Function” (Frontiers in Molecular Biosciences, 2022).

Target: T1, WBSCR27 (Mus musculus, UniProt Q8BGM4)
T1 construct: gene Mettl27; recombinant in E. coli, Ni-NTA, His-tag cleaved; isotope-labelled for NMR
T1 sequence (Q8BGM4 1-238): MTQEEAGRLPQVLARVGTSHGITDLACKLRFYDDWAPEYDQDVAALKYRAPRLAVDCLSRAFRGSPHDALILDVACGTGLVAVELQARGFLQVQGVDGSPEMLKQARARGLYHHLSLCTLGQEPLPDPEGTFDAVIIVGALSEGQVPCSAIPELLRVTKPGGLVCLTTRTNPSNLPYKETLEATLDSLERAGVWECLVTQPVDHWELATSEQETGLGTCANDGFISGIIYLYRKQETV
Test: […],1H HSQC NMR of epimer mixture with protein
Type: binding
Details: 308 K, labelled compound (methyl 13C), 0.05 mM each

## C[S+](CC[C@H](N)C(=O)O)C[C@H]1O[C@@H](n2cnc3c(N)ncnc32)[C@H](O)[C@@H]1O (mixture of isomers) [(R,S)-SAM]
Equimolar mixture with (S,S)-SAM, seen bound only at the higher protein ratio
  13C,1H HSQC NMR of epimer mixture with protein: This indicates a significantly lower affinity of the (R,S)-epimer compared with the (S,S)-epimer

## C[S+](CC[C@H](N)C(=O)O)C[C@H]1O[C@@H](n2cnc3c(N)ncnc32)[C@H](O)[C@@H]1O (stereo partly drawn) [(S,S)-SAM]
Equimolar mixture with (R,S)-SAM
  13C,1H HSQC NMR of epimer mixture with protein: WBSCR27 preferably binds the (S,S) stereoisomer
